Results reported in patent publication US20220251124A1, “3,5-BIS(PHENYL)-1H-HETEROARYL DERIVATIVES AS MEDICAMENTS” (INSTITUTE OF BIOTECHNOLOGY CAS, V.V.I., priority 2019, published 2022).
Like-named read-outs stand apart in the source and are kept apart here. One block for each compound: values may come before it.

Assays:
Type in all cases: cell-based
[1] = test system: MDA-MB-231 cells stably transfected with KEIMA; assay: mitophagy induction, KEIMA reporter; settings: 24 hours
Experimental: (§1) The effect of compounds 1 and 2 on mitophagy induction was assessed in MCF7 and MDA-MB-231 cells using the reporter protein KEIMA. The excitation spectra of KEIMA changes according to the mitochondrial pH, having an excitation peak at 440 nm atr pH>6 and at 586 at pH<5, with a second excitation peak remaining constant at 620 nm. Therefore, a decrease in the 440 nm/586 nm fluorescence ratio indicates mitochondrial acidification. MCF7 and MDA-MB-231 cells stably transfected with KEIMA were incubated with compound 1 for 24 hours and their fluorescence at both excitation wavelengths was measured by flow cytometry.

[2] = test system: MCF7 cells stably transfected with KEIMA; assay: mitophagy induction, KEIMA reporter; settings: 24 hours
Experimental: as §1

MCF7 [3] = assay: mitochondrial ROS, mitoSOX probe, flow cytometry
Experimental: (§2) The effect of compound 1 on generation of mitochondrial reactive oxygen species (ROS) was evaluated in MCF7 and MDA-MB-231 cells using a specific mitochondrially targeted probe mitoSOX (ThermoFisher Scientific) that measures mostly mitochondrial superoxide and upon binding becomes fluorescent. Cells treated with compound 1 for the described time interval were stained with the probe and then analyzed via Flow cytometry.

MDA-MB-231 [4] = assay: mitochondrial ROS, mitoSOX probe, flow cytometry
Experimental: as §2

MCF7 [5] = assay: cell cycle distribution, Vybrant DyeCycle Violet, flow cytometry; settings: 1 μM
Experimental: (§3) In order to define the effect on cellular level, we investigated the effect of compound 1 and 2 at non-cytotoxic concentrations of the drugs (1 μM) on cell cycle. Cells were cultivated with the compounds for 24 and 48 hrs and then stained with Vybrant DyeCycle VioletReady Flow reagent (ThermoFisher Scientific) that binds to DNA and analyzed by Flow cytometry and Kaluza program to define the proportions of G1,S and G2/M phases of cell cycle. It is evident that both compounds lead to accumulation of cells in G1 phase if the cell cycle, which become more prominent at later time points (see Table 12, 13).

MDA-MB-231 [6] = assay: as above; settings: 1 μM
Experimental: as §3

MCF7 cells = assay: real time monitoring of cell confluence via Juli FL; settings: 30 nM
Experimental: We also tested the ability of compound 1 to suppress proliferation of cancer cells by an alternative approach via the real time monitoring with a cellular analyser Juli F L. In brief, MCF7 cells were seeded in a 6-well plate the day before to reach approximately 5% confluence on the following day. Next day, the camera of the instrument was focused on a particular field with approximately 5% confluence and cells were continuously monitored, recording the confluence and visual appearance every 30 minutes for 48 hrs. Values were then expressed either as simple confluence at the end of the experiment or as slope of the line representing the confluence during a given period of time (Table 5).

UPF4D leukemia cell line [7] = assay: AnnexinV/PI assay, cell death induction, 48 hrs
Experimental: (§4) This effect seems to be based mainly on the cytostatic effect of compound 1. To define the ability to kill cells, cell death-inducing potency (cytotoxic efficacy) of DFX and compound 1 have been tested via annexin V/PI staining commonly used as a measure of apoptotic/necrotic cell death. Briefly, cells were seeded in 12-well plate at 100,000 per well, incubated with the selected compounds for 48 hours, then floating cells were spun, adherent cells trypsinized and spun as well followed by the staining with AnnexinV-FITC and PI probes. Cells were then washed with PBS and measured via Fluorescence Activated Sorter.
(§5) This effect seems to be based mainly on the cytostatic effect of compound 1. To define the ability to kill cells, cell death-inducing potency (cytotoxic efficacy) of DFX and compound 1 have been tested via annexin V/PI staining commonly used as a measure of apoptotic/necrotic cell death (see example 15). […] Compound 1 killed cancer cells with effects higher by almost 3 orders of magnitude than those of deferasirox. Such results are unprecedented and very unexpected.

UPF9T leukemia cell line = assay: AnnexinV/PI assay, cell death induction, 48 hrs
Experimental: as §4, §5

UPF1H leukemia cell line = assay: AnnexinV/PI assay, cell death induction, 48 hrs
Experimental: as §4, §5

[8] = test system: UPF16A leukemia cell line; assay: AnnexinV/PI assay, cell death induction, 48 hrs
Experimental: as §4, §5

UPF4D leukemia cell line [9] = assay: alamarBlue Cell Viability Reagent, 48 hrs
Experimental: Compound 1 and a comparative compound deferasirox (DFX) were tested in their efficacy to kill/suppress proliferation of several leukemia cells. Briefly, 10.000 cells per well were seeded in a 96-well plate on one day and the next day the tested compounds were added and incubated with the cells for 48 hrs. Cellular viability was determined as the ability to reduce the probe alamarBlue™ Cell Viability Reagent.

MDA-MB-231 [10] = assay: annexin V/PI staining, cell death induction, 48 hrs
Experimental: as §4
Since compound 1 is an iron chelator, we have evaluated the effect of pre-loading compound 1 with iron at a 2:1 ratio and then applying it to the cells, followed by measurement of cell death using the Annexin V/PI staining as in example 4.

[11] = 48 hrs, UPF4D, read-out: viable cells compared to non-treated controls

Compound: O=C(NCCCCCCCCCC[P+](c1ccccc1)(c1ccccc1)c1ccccc1)c1ccc(-n2nc(-c3ccccc3O)nc2-c2ccccc2O)cc1 [Compound 1, (10-(4-(3,5-bis(2-hydroxyphenyl)-1H-1,2,4-triazol-1-yl)benzamido)decyl) triphenylphosphonium Chloride]
KEIMA 440 nm/586 nm fluorescence ratio ([1]; 1.5 μM): 0.81 (0.02)
KEIMA 440 nm/586 nm fluorescence ratio ([1]; 2.5 μM): 0.81 (0.03)
KEIMA 440 nm/586 nm fluorescence ratio ([1]; 5 μM): 0.76 (0.10)
KEIMA 440 nm/586 nm fluorescence ratio ([1]; 10 μM): 0.50 (0.04)
KEIMA 440 nm/586 nm fluorescence ratio ([2]; 1.5 μM): 1.01 (0.14)
KEIMA 440 nm/586 nm fluorescence ratio ([2]; 2.5 μM): 0.99 (0.13)
KEIMA 440 nm/586 nm fluorescence ratio ([2]; 5 μM): 0.86 (0.15)
KEIMA 440 nm/586 nm fluorescence ratio ([2]; 10 μM): 0.71 (0.25)
MitoSOX mean fluorescence (MCF7 [3]; 5 min, MCF7 (0 min = 100)): 176.5 (15.0)
MitoSOX mean fluorescence (MCF7 [3]; 10 min, MCF7): 177.6 (26.1)
MitoSOX mean fluorescence (MCF7 [3]; 15 min, MCF7): 191.6 (47.0)
MitoSOX mean fluorescence (MCF7 [3]; 30 min, MCF7): 230.8 (85.2)
MitoSOX mean fluorescence (MCF7 [3]; 60 min, MCF7): 235.9 (99.3)
MitoSOX mean fluorescence (MCF7 [3]; 120 min, MCF7): 171.1 (17.6)
MitoSOX mean fluorescence (MCF7 [3]; 180 min, MCF7): 165.4 (8.9)
MitoSOX mean fluorescence (MCF7 [3]; 240 min, MCF7): 207.7 (18.5)
MitoSOX mean fluorescence (MDA-MB-231 [4]; 5 min, MDA-MB-231 (0 min = 100)): 134.7 (36.9)
MitoSOX mean fluorescence (MDA-MB-231 [4]; 10 min, MDA-MB-231): 196.7 (41.5)
MitoSOX mean fluorescence (MDA-MB-231 [4]; 15 min, MDA-MB-231): 284.7 (103.2)
MitoSOX mean fluorescence (MDA-MB-231 [4]; 30 min, MDA-MB-231): 379.1 (76.9)
MitoSOX mean fluorescence (MDA-MB-231 [4]; 60 min, MDA-MB-231): 439.1 (83.0)
MitoSOX mean fluorescence (MDA-MB-231 [4]; 120 min, MDA-MB-231): 588.2 (14.11)
MitoSOX mean fluorescence (MDA-MB-231 [4]; 180 min, MDA-MB-231): 560.8 (27.5)
MitoSOX mean fluorescence (MDA-MB-231 [4]; 240 min, MDA-MB-231): 612.5 (37.5)
proportion of cells in G1 (MCF7 [5]; 24 hrs): 82.8 (1.6)
proportion of cells in G2 (MCF7 [5]; 24 hrs): 13.2
proportion of cells in S (MCF7 [5]; 24 hrs): 4.0
proportion of cells in G1 (MCF7 [5]; 48 hrs): 75.8 (2.1)
proportion of cells in G2 (MCF7 [5]; 48 hrs): 12.4 (2.5)
proportion of cells in S (MCF7 [5]; 48 hrs): 11.9 (2.3)
proportion of cells in G1 (MDA-MB-231 [6]; 24 hrs): 64.6 (2.0)
proportion of cells in G2 (MDA-MB-231 [6]; 24 hrs): 27.7 (2.3)
proportion of cells in S (MDA-MB-231 [6]; 24 hrs): 7.7
proportion of cells in G1 (MDA-MB-231 [6]; 48 hrs): 65.0 (4.1)
proportion of cells in G2 (MDA-MB-231 [6]; 48 hrs): 25.2 (3.3)
proportion of cells in S (MDA-MB-231 [6]; 48 hrs): 9.8
effect on cellular proliferation (MCF7 cells; MCF7): significant inhibition of cellular proliferation
Final % confluence (MCF7 cells; MCF7, 48 hrs): 15.01 (3.4) %
Slope 0-22 h (confluence versus time) (MCF7 cells; MCF7, Juli FL): 0.258 (0.005)
Slope 22-48 h (confluence versus time) (MCF7 cells; MCF7, Juli FL): 0.404 (0.005)
dead cells (AnnexinV/PI) (UPF4D leukemia cell line [7]; 0.1 μM): 87.3 (13.4) %
dead cells (AnnexinV/PI) (UPF4D leukemia cell line [7]; 1 μM): 96.7 (3.9) %
dead cells (AnnexinV/PI) (UPF9T leukemia cell line; 0.1 μM): 88.2 (4.8) %
dead cells (AnnexinV/PI) (UPF9T leukemia cell line; 1 μM): 99.0 (0.6) %
dead cells (AnnexinV/PI) (UPF1H leukemia cell line; 0.1 μM): 85.3 (10.9) %
dead cells (AnnexinV/PI) (UPF1H leukemia cell line; 1 μM): 98.3 (0.6) %
dead cells (AnnexinV/PI) ([8]; 0.1 μM): 45.4 (16.2) %
dead cells (AnnexinV/PI) ([8]; 1 μM): 71.8 (20.2) %
viability at 0.03 µM (UPF4D leukemia cell line [9]; 0.030 μM, 48 hrs, UPF4D, read-out: viable cells compared to non-treated controls): 90.1%
viability at 0.1 µM (UPF4D leukemia cell line [9]; 0.100 μM, 48 hrs, UPF4D, read-out: viable cells compared to non-treated controls): 49.8%
viability at 0.3 µM (UPF4D leukemia cell line [9]; 0.300 μM, 48 hrs, UPF4D, read-out: viable cells compared to non-treated controls): 0.56%
viability at 3 µM (UPF4D leukemia cell line [9]; [11]): 0.74%
viability at 10 µM (UPF4D leukemia cell line [9]; 10 μM, 48 hrs, UPF4D, read-out: viable cells compared to non-treated controls): 0.1%
IC50 (UPF4D leukemia cell line [9]; 48 h): 90 nM
dead cells (AnnexinV/PI) (MDA-MB-231 [10]; 5 μM): 53.5 (23.1) %
dead cells (AnnexinV/PI) (MDA-MB-231 [10]; 5 μM, +Fe^+3 (pre-loaded with iron at a 2:1 ratio)): 15.9 (2.7) %
dead cells (AnnexinV/PI) (MDA-MB-231 [10]; 5 μM, alone): 61.1 (18.8) %
dead cells (AnnexinV/PI) (MDA-MB-231 [10]; 10 μM, +Fe^+3 (pre-loaded with iron at a 2:1 ratio)): 22.4 (6.1) %
dead cells (AnnexinV/PI) (MDA-MB-231 [10]; 10 μM, alone): 88.2 (5.8) %

IC50 (UPF4D leukemia cell line [9]; UPF4D, alamarBlue, 48 hrs, read-out: IC50): 4920 nM
Compound: O=C(O)c1ccc(-n2nc(-c3ccccc3O)nc2-c2ccccc2O)cc1 [DFX, deferasirox, reference compound]
dead cells (AnnexinV/PI) (UPF4D leukemia cell line [7]; 1 μM): 16.9 (16.9) %
dead cells (AnnexinV/PI) (UPF4D leukemia cell line [7]; 10 μM): 77.3 (3.5) %
dead cells (AnnexinV/PI) (UPF9T leukemia cell line; 1 μM): 13.7 (3.3) %
dead cells (AnnexinV/PI) (UPF9T leukemia cell line; 10 μM): 46.6 (5.2) %
dead cells (AnnexinV/PI) (UPF1H leukemia cell line; 1 μM): 9.9 (1.3) %
dead cells (AnnexinV/PI) (UPF1H leukemia cell line; 10 μM): 95.8 (0.2) %
dead cells (AnnexinV/PI) ([8]; 1 μM): 13.7 (5.0) %
dead cells (AnnexinV/PI) ([8]; 10 μM): 48.4 (16.2) %
viability at 1 µM (UPF4D leukemia cell line [9]; 1 μM, 48 hrs, UPF4D, read-out: viable cells compared to non-treated controls): 92.7%
viability at 3 µM (UPF4D leukemia cell line [9]; [11]): 61.9%
viability at 30 µM (UPF4D leukemia cell line [9]; 30 μM, 48 hrs, UPF4D, read-out: viable cells compared to non-treated controls): 2.9%
viability at 100 µM (UPF4D leukemia cell line [9]; 100 μM, 48 hrs, UPF4D, read-out: viable cells compared to non-treated controls): 4%
viability at 500 µM (UPF4D leukemia cell line [9]; 500 μM, 48 hrs, UPF4D, read-out: viable cells compared to non-treated controls): 11.1%
